Data taken from PubChem BioAssay (NCI).
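Abbreviation: GI50, concentration required for 50% inhibition of growth. TGI: total growth inhibition.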

What was measured:
Experiment in all cases: NCI-60 cell line screen, 384-well format; in the data active = GI50 below about 0.43 µM; inactive = the rest
[1] = test system: CCRF-CEM leukemia
[2] = test system: NCI-H322M lung
[3] = test system: OVCAR-3 ovarian
[4] = test system: SK-MEL-28 melanoma
[5] = test system: MALME-3M melanoma
[6] = test system: NCI/ADR-RES ovarian
[7] = test system: SW-620 colon
[8] = test system: CAKI-1 renal
[9] = test system: TK-10 renal
[10] = test system: T-47D breast
[11] = test system: UACC-257 melanoma
[12] = test system: RXF 393 renal
[13] = test system: SF-295 CNS
[14] = test system: SF-539 CNS
[15] = test system: OVCAR-4 ovarian
[16] = test system: SN12C renal
[17] = test system: NCI-H460 NSCLC
[18] = test system: RPMI-8226 leukemia
[19] = test system: NCI-H522 lung
[20] = test system: UO-31 renal
[21] = test system: HOP-62 NSCLC
[22] = test system: HCC-2998 colon
[23] = test system: HOP-92 NSCLC
[24] = test system: ACHN renal
[25] = test system: SK-MEL-5 melanoma
[26] = test system: 786-0 renal
[27] = test system: A498 renal

COc1cc(Nc2ncc(F)c(Nc3ccc4c(n3)NC(=O)C(C)(C)O4)n2)cc(OC)c1OC
30.9 µM: TGI [12]
17.8 µM: TGI [14]
active: GI50 [16] 258 nM
31.7 µM: TGI [21]
13.1 µM: TGI [19]
> 100 µM: TGI [1] | TGI [2] | TGI [3] | TGI [4] | TGI [5] | TGI [6] | TGI [7] | TGI [8] | TGI [9] | TGI [10] | TGI [11] | TGI [13] | TGI [15] | TGI [16] | TGI [17] | TGI [18] | TGI [20] | TGI [22] | TGI [23] | TGI [24] | TGI [25] | TGI [26] | TGI [27]
inactive: GI50 [1] 9.52 µM | GI50 [2] 4.17 µM | GI50 [3] 6.28 µM | GI50 [4] 43.8 µM | GI50 [5] 29.5 µM | GI50 [6] 13.4 µM | GI50 [7] > 100 µM | GI50 [8] 445 nM | GI50 [9] > 100 µM | GI50 [10] 52.6 µM | GI50 [11] > 100 µM | GI50 [12] 516 nM | GI50 [13] 3.65 µM | GI50 [14] 1240 nM | GI50 [15] 16.4 µM | GI50 [17] 11.3 µM | GI50 [18] > 100 µM | GI50 [19] 700 nM | GI50 [20] 55.1 µM | GI50 [21] 5.75 µM | GI50 [22] 14.7 µM | GI50 [23] 15.4 µM | GI50 [24] 1600 nM | GI50 [25] 7.41 µM | GI50 [26] 16.3 µM | GI50 [27] 20.6 µM
